Test results: patent US12410160B2 (Gilead Sciences, Inc., priority 2021, dated 2025)
Like-named read-outs stand apart in the source and are kept apart here.

Tests used:
human KHK-A = human KHK-A (Homo sapiens (Human), UniProt P50053); assay: KHK Biochemical Assay (IC50), ADP-Glo, KHK-A; conditions: average of at least two separate assays
In short: (§1)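 His-tagged enzyme expressed in BL21 (DE3), Ni-NTA purified. Compounds, serially diluted 1:3 in DMSO, pre-incubated 30 min with enzyme in 50 mM Hepes pH 7.4, 140 mM KCl, 5 mM MgCl2, 0.01% Triton-X, then ATP and fructose added; 4 h at room temperature. ADP formation read by ADP-Glo luminescence.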

[1] = target: KHK-C expressed in NRK-52E cells (Homo sapiens (Human), UniProt P50053); assay: KHK-C Cell-based Assay (EC50), NRK CTG, fructose-mediated ATP-depletion
Protocol: Compounds were tested in a high-throughput 384-well assay format for their ability to attenuate fructose-mediated ATP-depletion in Normal Rat Kidney epithelial cells (NRK-52E) using the Cell-Titer Glo (CTG) assay, which measures cellular ATP levels based on luminescence signal by using the luciferase-luciferin system. Compounds were serially diluted (1:3) in DMSO.
The plates were incubated at 37° C., 5% CO2 for one day. Cells were then transduced on day 2 with 200 MOI of Adenovirus (VQAd KHKC C-(K)-DYK ViraQuest Inc.) using the same medium and method as day-1 to induce KHK-C expression in the cells. Cells were incubated at 37° C., 5% CO2 for one day. On day-3, the medium was changed to DMEM medium (Corning, Catalog #10-014-CM) with 0.5% FBS and Penicillin-Streptomycin after washing the cells twice with sterile PBS on the BioTEK EL406 washer and dispenser. Test compounds were then diluted 200-fold into the assay plates using the BioMek FX and were incubated for 1 hour at 37° C., 5% CO2. 25 mM (final concentration) of fructose was then dispensed into the plates using the BioTEK EL406 dispenser and the plates were incubated at 37° C., 5% CO2 for 48 hours before addition of CTG reagent and measurement of luminescence signal.

human KHK-C = human KHK-C (Homo sapiens (Human), UniProt P50053); assay: KHK Biochemical Assay (IC50), ADP-Glo, KHK-C; conditions: average of at least two separate assays
In short: as §1

Sequence of KHK-C expressed in NRK-52E cells (P50053 whole entry): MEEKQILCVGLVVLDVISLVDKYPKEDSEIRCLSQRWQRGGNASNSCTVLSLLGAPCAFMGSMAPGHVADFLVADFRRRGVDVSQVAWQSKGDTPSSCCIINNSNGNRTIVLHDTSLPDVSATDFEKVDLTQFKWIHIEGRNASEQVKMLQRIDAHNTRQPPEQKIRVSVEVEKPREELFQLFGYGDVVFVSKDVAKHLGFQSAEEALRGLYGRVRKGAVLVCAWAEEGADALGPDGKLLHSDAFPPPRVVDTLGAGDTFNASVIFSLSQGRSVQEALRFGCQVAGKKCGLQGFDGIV
Sequence of human KHK-C (P50053 whole entry): as above
Sequence of human KHK-A (P50053 other isoform, or with tags, fused parts or gaps): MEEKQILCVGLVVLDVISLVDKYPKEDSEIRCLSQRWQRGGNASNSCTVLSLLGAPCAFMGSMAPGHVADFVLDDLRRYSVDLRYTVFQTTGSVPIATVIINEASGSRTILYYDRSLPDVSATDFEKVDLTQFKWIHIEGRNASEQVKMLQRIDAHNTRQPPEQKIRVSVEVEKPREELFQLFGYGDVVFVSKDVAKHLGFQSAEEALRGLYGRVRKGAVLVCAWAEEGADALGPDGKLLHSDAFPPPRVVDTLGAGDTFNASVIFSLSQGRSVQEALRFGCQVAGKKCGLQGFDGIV

Compound	IC50 (human KHK-A) [nM]	EC50 [1] [nM]	IC50 (human KHK-C) [nM]	EC50 ([1]; read-out: NRK CTG EC50, NRK-52E cells, Cell-Titer Glo, 25 mM fructose) [nM]	IC50 (human KHK-A; ADP-Glo) [nM]	IC50 (human KHK-C; ADP-Glo) [nM]
C[C@H]1[C@H](O)CN1c1nc(-c2ccc3c(c2)OC[C@]32NC(=O)OC2(C)C)c2c(n1)C(F)(F)CC2 (single isomer, unassigned) [Example 566]	16.3	6.7	0.8			
C[C@H]1[C@H](O)CN1c1nc(-c2ccc3c(c2)CC[C@@]32CCC(=O)N2)c2c(n1)C(F)(F)CC2 (single isomer, unassigned) [Example 637]	35.1	161	22.1			
C[C@H]1[C@H](O)CN1c1nc(-c2ccc3c(c2)CC[C@]32CCC(=O)N2)c2c(n1)C(F)(F)CC2 (single isomer, unassigned) [Example 638]	8.5	6.1	0.3			
C[C@H]1[C@H](O)CN1c1nc(-c2ccc3c(c2)COC[C@@]32CCC(=O)N2)c2c(n1)C(F)(F)CC2 (single isomer, unassigned) [Example 640]	38.8	280	29.2			
C[C@H]1[C@H](O)CN1c1nc(-c2ccc3c(c2)COC[C@]32CCC(=O)N2)c2c(n1)C(F)(F)CC2 (single isomer, unassigned) [Example 641]	14.5		0.9	20.3		
C[C@H]1CCN1c1nc(-c2cccc(N=[S@@](C)(N)=O)c2)c2c(n1)C(F)(F)CC2 (single isomer, unassigned) [Example 691]	7.5	50.4	7.4			
C[C@H]1CCN1c1nc(-c2cccc(N=[S@](C)(N)=O)c2)c2c(n1)C(F)(F)CC2 (single isomer, unassigned) [Example 692]	6.9	44.9	8.3			
C[C@H]1[C@H](O)CN1c1nc(-c2ccc3c(c2)OC[C@]32CN(C)C(=O)N2)c2c(n1)C(F)(F)CC2 (single isomer, unassigned) [Example 701]	31.8	108	20.5			
C[C@H]1[C@H](O)CN1c1nc(-c2ccc3c(c2)OC[C@@]32CN(C)C(=O)N2)c2c(n1)C(F)(F)CC2 (single isomer, unassigned) [Example 702]	11.7	3.9	0.2			
C[C@H]1CCN1c1nc2c(c(-c3ccc(C(O)C(F)(F)F)cc3)n1)CCC2 (stereo in doubt) [Example 265, 2,2,2-trifluoro-1-[4-[2-[(2S)-2-methylazetidin-1-yl]-6,7-dihydro-5H-cyclopenta[d]pyrimidin-4-yl]phenyl]ethanol]		700			2100	1630
C[C@H]1CCN1c1nc2c(c(-c3ccc(C(N)C(F)(F)F)cc3)n1)CCC2 (stereo in doubt) [Example 269, 2,2,2-trifluoro-1-[4-[2-[(2S)-2-methylazetidin-1-yl]-6,7-dihydro-5H-cyclopenta[d]pyrimidin-4-yl]phenyl]ethanamine]		> 5000			> 5000	> 5000
C[C@H]1CCN1c1nc2c(c(-c3cccc([C@H]4C[C@@H]4C#N)c3)n1)CCC2 (stereo in doubt) [Example 454, trans-2-[3-[2-[(2S)-2-methylazetidin-1-yl]-6,7-dihydro-5H-cyclopenta[d]pyrimidin-4-yl]phenyl]cyclopropanecarbonitrile]	459	546	489			
C[C@H]1CCN1c1nc2c(c(-c3cccc([C@H]4C[C@@H]4C(N)=O)c3)n1)CCC2 (stereo in doubt) [Example 456, trans-2-[3-[2-[(2S)-2-methylazetidin-1-yl]-6,7-dihydro-5H-cyclopenta[d]pyrimidin-4-yl]phenyl]cyclopropanecarboxamide]	44.8	51.8	21.8			
Cc1ccc(-c2nc(N3CC[C@@H]3C)nc3c2CCC3)cc1C(N)=O [Example 27, (S)-2-methyl-5-(2-(2-methylazetidin-1-yl)-6,7-dihydro-5H-cyclopenta[d]pyrimidin-4-yl)benzamide]		229			58.9	59.7
CNC(=O)c1cccc(-c2nc(N3CC[C@@H]3C)nc3c2CCC3)c1 [Example 28, (S)—N-methyl-3-(2-(2-methylazetidin-1-yl)-6,7-dihydro-5H-cyclopenta[d]pyrimidin-4-yl)benzamide]		137			55.2	50.3
C[C@H]1CCN1c1nc2c(c(-c3cccc(CCC(N)=O)c3)n1)CCC2 [Example 29]		120			55.3	33
Cc1ncc(-c2nc(N3CC[C@@H]3C)nc3c2CCC3)s1 [Example 34, (S)-2-methyl-5-(2-(2-methylazetidin-1-yl)-6,7-dihydro-5H-cyclopenta[d]pyrimidin-4-yl)thiazole]		142			52.7	64.5

Compound	IC50 (human KHK-A) [nM]	EC50 [1] [nM]	IC50 (human KHK-C) [nM]	EC50 ([1]; read-out: NRK CTG EC50, NRK-52E cells, Cell-Titer Glo, 25 mM fructose) [nM]	IC50 (human KHK-A; ADP-Glo) [nM]	IC50 (human KHK-C; ADP-Glo) [nM]
C[C@H]1CCN1c1nc2c(c(-c3cscn3)n1)CCC2 [Example 36, (S)-4-(2-(2-methylazetidin-1-yl)-6,7-dihydro-5H-cyclopenta[d]pyrimidin-4-yl)thiazole]		434			147	146
C[C@H]1[C@H](O)CN1c1nc(-c2cccc(S(N)(=O)=O)c2)c2c(cnn2C)n1 [Example 38]		12200			812	836
C[C@H]1CCN1c1nc2c(c(-c3ccc4[nH]ncc4c3)n1)CCC2 [Example 39, (S)-5-(2-(2-methylazetidin-1-yl)-6,7-dihydro-5H-cyclopenta[d]pyrimidin-4-yl)-1H-indazole]		211			86.2	113
CC(=O)Nc1cccc(-c2nc(N3C[C@@H](O)[C@@H]3C)nc3c2CCC3)c1 [Example 41]		602			102	125
C[C@H]1[C@H](O)CN1c1nc2c(c(-c3cccc(NS(C)(=O)=O)c3)n1)CCC2 [Example 43, N-(3-(2-((2S,3R)-3-hydroxy-2-methylazetidin-1-yl)-6,7-dihydro-5H-cyclopenta[d]pyrimidin-4-yl)phenyl)methanesulfonamide]		225			66.8	48.1
C[C@H]1CCN1c1nc2c(c(-c3ccc4cn[nH]c4c3)n1)CCC2 [Example 44, (S)-6-(2-(2-methylazetidin-1-yl)-6,7-dihydro-5H-cyclopenta[d]pyrimidin-4-yl)-1H-indazole]		329			286	259
C[C@H]1[C@H](O)CN1c1nc2c(c(-c3cccc(C4CC4C(=O)O)c3)n1)CCC2 (stereo partly drawn) [Example 47, 2-(3-(2-((2S,3R)-3-hydroxy-2-methylazetidin-1-yl)-6,7-dihydro-5H-cyclopenta[d]pyrimidin-4-yl)phenyl)cyclopropane-1-carboxylic acid]		2370			29.4	15.2
C[C@H]1[C@H](F)CN1c1nc2c(c(-c3cccc(C4CC4C(=O)O)c3)n1)CCC2 (stereo partly drawn) [Example 48]		77.1			7.1	5.3
C[C@H]1[C@H](O)CN1c1nc2c(c(-c3ccc(C(N)=O)s3)n1)CCC2 [Example 57, 5-(2-((2S,3R)-3-hydroxy-2-methylazetidin-1-yl)-6,7-dihydro-5H-cyclopenta[d]pyrimidin-4-yl)thiophene-2-carboxamide]		65.8			12.9	17.8
C[C@H]1[C@H](F)CN1c1nc2c(c(-c3ccc(C(N)=O)s3)n1)CCC2 [Example 58]		9.5			5.8	7.9
C[C@H]1CCN1c1nc(-c2cccc(C(N)=O)c2)c2c(n1)[C@@H]1CC[C@H]2C1 [Example 63, 3-((5S,8R)-2-((S)-2-methylazetidin-1-yl)-5,6,7,8-tetrahydro-5,8-methanoquinazolin-4-yl)benzamide]		138			112	95.3
C[C@H]1CCN1c1nc2c(c(-c3cccc(C(=O)NCC(=O)O)c3)n1)CCC2 [Example 66, (S)-(3-(2-(2-methylazetidin-1-yl)-6,7-dihydro-5H-cyclopenta[d]pyrimidin-4-yl)benzoyl)glycine]		35500			64.8	54.5
C[C@H]1CCN1c1nc2c(c(-c3ccc4[nH]nc(CC(=O)O)c4c3)n1)CCC2 [Example 70, (S)-2-(5-(2-(2-methylazetidin-1-yl)-6,7-dihydro-5H-cyclopenta[d]pyrimidin-4-yl)-1H-indazol-3-yl)acetic acid]		> 5000			29.4	51.7
C[C@H]1CCN1c1nc2c(c(-c3ccc4c(c3)S(=O)(=O)NC4)n1)CCC2 [Example 72, (S)-6-(2-(2-methylazetidin-1-yl)-6,7-dihydro-5H-cyclopenta[d]pyrimidin-4-yl)-2,3-dihydrobenzo[d]isothiazole 1,1-dioxide]		29.8			18	15
C[C@H]1CCN1c1nc2c(c(-c3cccc(S(=O)(=O)NCC(=O)O)c3)n1)CCC2 [Example 74, (S)-((3-(2-(2-methylazetidin-1-yl)-6,7-dihydro-5H-cyclopenta[d]pyrimidin-4-yl)phenyl)sulfonyl)glycine]		859			22.9	26.3
C[C@H]1CCN1c1nc2c(c(-c3cccc(NS(=O)(=O)CC(=O)O)c3)n1)CCC2 [Example 81, (S)-2-(N-(3-(2-(2-methylazetidin-1-yl)-6,7-dihydro-5H-cyclopenta[d]pyrimidin-4-yl)phenyl)sulfamoyl)acetic acid]		> 5000			9.5	7.6
C[C@H]1[C@H](O)CN1c1nc2c(c(-c3cccc(NS(=O)(=O)CC(=O)O)c3)n1)CCC2 [Example 82]		> 5000			14.9	14.9
